Values of other authors as cited in patent US20050233005A1, “Use of glycosaminoglycans and zinc derivatives for insect bites, stings and the like” (priority 2004, published 2005).

What was measured:
diabetic foot wounds = conditions: in wound dressings (Vazquez et al., 2003)
skin wound = conditions: topical application (Chen and Abatengelo, 1999)
[1] = tested on: pruritus caused by mosquito bites; conditions: administered prophylactically (Karppinen et al., 2002)
[2] = topical applications and oral administration, animal models and humans (SCCNFP report, 2003)
porcine wounds = conditions: topical application (Tarnow et al., 1994; Agren et al., 2001)

| Compound | pruritus caused by mosquito bites [1] | toxicity [2] | also measured |
| --- | --- | --- | --- |
| Hyaluronic acid [HA] | – | – | healing of diabetic foot wounds (diabetic foot wounds): beneficial; skin wound healing (skin wound): accelerate |
| O=C(O)COCCN1CCN(C(c2ccccc2)c2ccc(Cl)cc2)CC1 (stereo not shown) [cetirizine] | significantly decrease | – | – |
| O=S(=O)([O-])[O-].[Zn+2] [zinc sulphate] | – | little or no toxicity | – |
| [O]=[Zn] [zinc oxide] | – | little or no toxicity | release of growth factors (porcine wounds): enhanced |
| CC(C)(C)c1ccc(C(=O)CCCN2CCC(OC(c3ccccc3)c3ccccc3)CC2)cc1 [ebastine] | significantly decrease | – | – |
